Converted amounts (≈) assume the structure as drawn. Like-named read-outs stand apart in the source and are kept apart here.
Assays:
[1] = test system: butanologen; assay: Biocompatibility with a butanologen (discussion of examples); type: cell-based
[2] = test system: genetically modified isobutanolagen yeast strain (PNY2141); type: cell-based; conditions: for Glucose, gpl Grams per Liter / OD: With solvent
[3] = Equilibrium moisture content of solvent; type: physicochemical; conditions: Table 1
Source text: The term “moisture content” as used herein refers to the equilibrium saturation of water contained by the solvent, whether or not product alcohol, e.g., isobutanol is present. At times the term “equilibrium” is used in conjunction with “moisture content” to indicate “moisture content” is related to a particular set of conditions, e.g., temperature, pressure, and so on. As will, be apparent, moisture content commonly refers to a maximum amount of water that can be dissolve by the solvent/solvent mixture given a certain set of conditions.
While the solvent mixture or portions thereof can be immiscible in water, e.g., on the order of 10^−7, in some instances one or more of the solvents can be comparatively weakly miscible in water. It is also to be appreciated, that water can be miscible (e.g., somewhat miscible) in the solvent mixture and/or miscible in one or more solvents included in the solvent mixture. COFA in some examples can absorb moisture, or water, such that the COFA is “wet”. A solvent's tendency to absorb moisture, e.g., act as a solvent, in some examples, can differ from that solvent's ability to solvate in water, e.g., its hydrophobicity. A table of various solvents and their respective characteristics is reproduced directly below.

[4] = Isobutanol partitioning between solvent and water (Kd, butanol partition coefficient)
[5] = test system: genetically modified isobutanolagen yeast strain PNY2310; type: cell-based; conditions: for Glucose: Example 9, With Solvent
[6] = test system: genetically modified isobutanologen yeast strain; assay: Biocompatibility shake flask, OD and glucose (Examples 2, 3); type: cell-based; conditions: for Glucose / OD: Example 3, With Solvent
[7] = test system: Sacchromyces Cerevisiae; conditions: in vitro; Bennis et al. 2004; cited from earlier work
[8] = test system: ethanol red yeast strain; assay: Biocompatibility shake flask, glucose (Example 12); type: cell-based
[9] = test system: naturally occurring ethanologen yeast strain; assay: Biocompatibility shake flask, glucose uptake (Example 1A); type: cell-based; conditions: 32° C.
[10] = aqueous 2.0 wt % isobutanol, half its mass of solvent
[11] = aqueous 2.0 wt % isobutanol, half its mass of solvent (5 g/2.5 g or 1 g/0.5 g), HPLC
[12] = 10 ml aqueous 6 wt % isobutanol + 1 ml solvent
[13] = 10 ml aqueous 6 wt % isobutanol + 1 ml solvent, gas chromatography
[14] = aqueous 2.0 wt % isobutanol, equal mass of solvent
[15] = aqueous 2.0 wt % isobutanol, equal mass of solvent (3 g/3 g or 5 g/5 g), HPLC
[16] = time 0 hr, 10 ml solvent on 20 ml medium, 32° C.

Compound: CC(C)c1cccc(C(C)C)c1 [1,3-diisopropylbenzene]
- biocompatibility with a butanologen (found in testing) [1]: not to be biocompatible
- consumption of glucose in presence of solvent ([2]; Example 6A): No significant consumption of glucose
- Glucose (grams per liter, gpl) ([2]; Example 6A, time 0 hours, 1.0 OD PNY2141, 10 ml solvent on 20 ml medium, 32° C.): 30 gpl
- Glucose (grams per liter, gpl) ([2]; Example 6A, time 6 hours): 30 gpl
- Glucose (grams per liter, gpl) ([2]; Example 6A, time 11 hours): 30 gpl
- Glucose (grams per liter, gpl) ([2]; Example 6A, time 16 hours): 28 gpl
- Glucose (grams per liter, gpl) ([2]; Example 6A, time 24 hours): 29 gpl

Compound: CCCCC(CC)CO (stereo not drawn) [2-ethylhexanol]
- Moisture Content (wt %) [3]: 2 wt %

Compound: Cc1ccc(C(C)C)cc1O [Carvacrol, carvacrol]
- isobutanol in organic layer, calculated by mass balance [4, 10]: 3.42 wt %
- mass partitioning coefficient [4, 10]: 15.5
- isobutanol in aqueous layer [4, 11]: 0.22 wt %
- Moisture Content (wt %) [3]: 2 wt %

Compound: CCN(CC)C(=O)c1cccc(C)c1 [DEET, diethyl m-toluamide]
- isobutanol in organic layer, calculated by mass balance [4, 10]: 3.17 wt %
- mass partitioning coefficient [4, 10]: 9.2
- isobutanol in aqueous layer [4, 11]: 0.34 wt %

Compound: CC(C)CC(C)CC(O)CC(C)C (stereo not drawn) [Isododecanol]
- isobutanol in organic layer, calculated by mass balance [4, 10]: 2.87 wt %
- mass partitioning coefficient [4, 10]: 5.42
- isobutanol in aqueous layer [4, 11]: 0.53 wt %
- Moisture Content (wt %) [3]: 0.2 wt %

Compound: CC(CC(C)(C)C)CC(C)(C)CC(C)(C)C (stereo not drawn) [Isohexadecane, 2,2,4,4,6,8,8-heptamethylnonane]
- Moisture Content (wt %) [3]: <0.01 wt %

Compound: CCCCN(CCCC)C(=O)N(CCCC)CCCC [Tetrabutylurea, tetrabutylurea]
- biocompatibility with a butanologen (found in testing) [1]: biocompatible with a butanologen
- isobutanol in organic layer, calculated by mass balance [4, 10]: 3.06 wt %
- mass partitioning coefficient [4, 10]: 7.35
- isobutanol in aqueous layer [4, 11]: 0.417 wt %
- glucose concentration versus flask without solvent ([5]; Example 9): No significant difference
- Glucose ([5]; time 0 hr, 0.5 OD PNY2310, 10 ml solvent on 20 ml medium, 32° C.): 28 g/L
- Glucose ([5]; time 4 hr): 25 g/L
- Glucose ([5]; time 8 hr): 14 g/L
- Glucose ([5]; time 12 hr): 0 g/L
- Moisture Content (wt %) [3]: 0.9 wt %

Compound: CC(CC(C)(C)C)CC(C)(C)C [isododecane, 2,2,4,6,6-pentamethylheptane]
- growth (glucose uptake and OD) versus flask without solvent ([6]; Example 3): No significant difference in growth
- Glucose ([6]; time 0 hr): 32 g/L
- OD ([6]; time 0 hr, 32 g/liter glucose, 10 ml solvent on 20 ml medium, 32° C.): 0.5
- Glucose ([6]; time 7 hr): 32 g/L
- OD ([6]; time 7 hr): 0.9
- Glucose ([6]; time 13 hr): 25 g/L
- OD ([6]; time 13 hr): 1.6
- Glucose ([6]; time 23 hr): 5 g/L
- OD ([6]; time 23 hr): 4.9
- Glucose ([6]; time 29 hr): 0.1 g/L
- OD ([6]; time 29 hr): 5.0
- biocompatibility with a butanologen (found in testing) [1]: biocompatible with a butanologen
- isobutanol in aqueous layer [4, 12]: 1.39 mole %
- isobutanol in organic layer [4, 12]: 17.24 mole %
- mass partitioning coefficient [4, 12]: 1.525
- molar partitioning coefficient [4, 12]: 12.4
- isobutanol in aqueous layer [4, 13]: 5.45 wt %
- isobutanol in organic layer [4, 13]: 8.31 wt %
- isobutanol in organic layer, calculated by mass balance [4, 14]: 0.40 wt %
- mass partitioning coefficient [4, 14]: 0.25
- isobutanol in aqueous layer [4, 15]: 1.60 wt %
- Moisture Content (wt %) [3]: <0.01 wt %

Compound: Cc1ccc(C(C)C)c(O)c1 [thymol]
- MFC (minimum fungal concentration) [7]: 1800 µM (≈ 270 µg/mL)
- MIC, minimum inhibitory concentration [7]: 1500 µM (≈ 225 µg/mL)

Compound: CCCCC(CC)COP(=O)(OCC(CC)CCCC)OCC(CC)CCCC (stereo not drawn) [tris(2-ethylhexyl) phosphate]
- inhibition in glucose consumption ([8]; Example 12): No significant inhibition in glucose consumption
- Glucose (grams per liter, gpl) ([8]; time 0 hours, 1.1 OD, 10 ml solvent on 20 ml medium, 32° C.): 17 gpl
- Glucose (grams per liter, gpl) ([8]; time 5 hours): 0 gpl
- Glucose (grams per liter, gpl) ([8]; time […]): 11.5 gpl

Compound: triisobutylene
- glucose uptake versus flask without solvent ([9]; 4 hours): No significant difference in glucose uptake
- glucose in aqueous phase ([9]; after 4 hours, start 21 g/liter glucose, 0.5 OD, 10 ml solvent on 20 ml medium): less than 0.1 g/liter
- isobutanol in aqueous layer [4, 12]: 1.33 mole %
- isobutanol in organic layer [4, 12]: 18.39 mole %
- mass partitioning coefficient [4, 12]: 1.71
- molar partitioning coefficient [4, 12]: 13.8
- isobutanol in aqueous layer [4, 13]: 5.28 wt %
- isobutanol in organic layer [4, 13]: 9.03 wt %
- isobutanol in organic layer, calculated by mass balance [4, 14]: 0.47 wt %
- mass partitioning coefficient [4, 14]: 0.31
- isobutanol in aqueous layer [4, 15]: 1.53 wt %
- growth (OD and glucose) versus flask without solvent ([2]; Example 1B, PNY2141, 32° C.): Some impedance to growth
- Glucose, gpl Grams per Liter [2, 16]: 28 gpl
- OD [2, 16]: 0.5
- Glucose, gpl Grams per Liter ([2]; time 6 hr): 27 gpl
- OD ([2]; time 6 hr): 0.6
- Glucose, gpl Grams per Liter ([2]; time 10 hr): 26 gpl
- OD ([2]; time 10 hr): 0.8
- Glucose, gpl Grams per Liter ([2]; time 19 hr): 22 gpl
- OD ([2]; time 19 hr): 1.6
- Glucose, gpl Grams per Liter ([2]; time 23 hr): 21 gpl
- OD ([2]; time 23 hr): 2.1
- Glucose, gpl Grams per Liter ([2]; time 30 hr): 14 gpl
- OD ([2]; time 30 hr): 2.8
- Glucose, gpl Grams per Liter ([2]; time 35 hr): 10 gpl
- OD ([2]; time 35 hr): 3.4
